For test [1], the target named is T1, Alpha-2B adrenergic receptor (Homo sapiens, UniProt P18089).
T1 sequence (P18089 whole entry): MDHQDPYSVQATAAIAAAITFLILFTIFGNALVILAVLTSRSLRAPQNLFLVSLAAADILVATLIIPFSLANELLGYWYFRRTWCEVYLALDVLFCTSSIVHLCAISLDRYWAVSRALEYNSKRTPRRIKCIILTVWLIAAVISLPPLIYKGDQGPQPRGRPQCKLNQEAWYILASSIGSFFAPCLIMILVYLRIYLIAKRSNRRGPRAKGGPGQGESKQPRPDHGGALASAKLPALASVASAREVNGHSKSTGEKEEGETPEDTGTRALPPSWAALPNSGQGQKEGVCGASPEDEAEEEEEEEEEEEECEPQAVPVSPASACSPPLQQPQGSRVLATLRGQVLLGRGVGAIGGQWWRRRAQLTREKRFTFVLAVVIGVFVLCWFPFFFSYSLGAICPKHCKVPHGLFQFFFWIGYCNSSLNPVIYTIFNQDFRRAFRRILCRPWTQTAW

A further test has as its target Histamine H1 receptor (Homo sapiens, UniProt P35367).
A further test addresses T2, Glucocorticoid receptor (Homo sapiens, UniProt P04150).
T2 sequence (P04150 whole entry): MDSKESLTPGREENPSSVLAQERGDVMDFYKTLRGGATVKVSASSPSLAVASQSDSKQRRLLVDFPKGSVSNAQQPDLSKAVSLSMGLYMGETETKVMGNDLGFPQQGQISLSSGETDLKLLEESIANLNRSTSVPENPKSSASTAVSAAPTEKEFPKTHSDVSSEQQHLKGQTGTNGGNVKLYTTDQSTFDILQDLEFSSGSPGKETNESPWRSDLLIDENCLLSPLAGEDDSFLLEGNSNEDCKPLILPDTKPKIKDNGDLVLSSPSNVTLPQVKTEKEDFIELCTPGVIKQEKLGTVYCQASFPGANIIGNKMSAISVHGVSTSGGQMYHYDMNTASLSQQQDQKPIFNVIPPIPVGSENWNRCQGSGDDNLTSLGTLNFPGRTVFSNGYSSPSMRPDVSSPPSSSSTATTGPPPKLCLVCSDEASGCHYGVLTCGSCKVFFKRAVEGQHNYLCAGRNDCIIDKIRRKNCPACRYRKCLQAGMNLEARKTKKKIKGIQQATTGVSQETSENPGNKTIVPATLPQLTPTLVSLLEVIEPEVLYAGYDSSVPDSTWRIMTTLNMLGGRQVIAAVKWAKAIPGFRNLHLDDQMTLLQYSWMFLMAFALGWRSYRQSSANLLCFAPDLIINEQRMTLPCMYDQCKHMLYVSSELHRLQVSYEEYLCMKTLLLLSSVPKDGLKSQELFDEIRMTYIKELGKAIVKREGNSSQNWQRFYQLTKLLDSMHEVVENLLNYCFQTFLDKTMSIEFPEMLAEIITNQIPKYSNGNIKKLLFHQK
It counts as functional.

The target of test [2] is T3, Peroxisome proliferator-activated receptor gamma (Homo sapiens, UniProt P37231).
T3 sequence (P37231 whole entry): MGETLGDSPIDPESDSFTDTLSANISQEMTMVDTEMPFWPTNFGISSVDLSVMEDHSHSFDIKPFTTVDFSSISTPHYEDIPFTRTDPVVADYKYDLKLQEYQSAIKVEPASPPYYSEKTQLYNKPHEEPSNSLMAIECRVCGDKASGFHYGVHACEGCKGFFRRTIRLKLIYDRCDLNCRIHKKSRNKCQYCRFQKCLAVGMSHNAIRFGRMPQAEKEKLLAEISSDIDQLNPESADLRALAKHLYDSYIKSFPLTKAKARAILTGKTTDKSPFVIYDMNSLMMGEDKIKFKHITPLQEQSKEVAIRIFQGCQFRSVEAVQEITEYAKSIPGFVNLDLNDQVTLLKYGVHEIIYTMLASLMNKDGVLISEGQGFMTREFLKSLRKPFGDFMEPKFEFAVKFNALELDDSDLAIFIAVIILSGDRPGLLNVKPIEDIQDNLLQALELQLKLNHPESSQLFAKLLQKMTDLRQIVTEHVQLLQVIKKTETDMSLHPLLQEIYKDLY
It counts as functional.

Test [3] addresses Voltage-dependent N-type calcium channel subunit alpha-1B (Rattus norvegicus, UniProt Q02294). It counts as functional.
Test [4] concerns the target T4, Corticotropin-releasing factor receptor 2 (Homo sapiens, UniProt Q13324).
T4 sequence (Q13324 whole entry): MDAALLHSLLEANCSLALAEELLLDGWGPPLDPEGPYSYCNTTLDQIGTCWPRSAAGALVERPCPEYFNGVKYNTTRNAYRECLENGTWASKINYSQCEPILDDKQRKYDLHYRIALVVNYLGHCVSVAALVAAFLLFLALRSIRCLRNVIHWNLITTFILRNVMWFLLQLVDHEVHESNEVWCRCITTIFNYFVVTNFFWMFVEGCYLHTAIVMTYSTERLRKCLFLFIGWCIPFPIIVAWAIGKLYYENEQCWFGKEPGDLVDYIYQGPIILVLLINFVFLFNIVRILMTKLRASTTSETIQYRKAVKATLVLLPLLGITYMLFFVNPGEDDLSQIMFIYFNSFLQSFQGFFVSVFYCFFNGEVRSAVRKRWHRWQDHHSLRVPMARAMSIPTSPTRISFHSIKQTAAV

Another test has as its target T5, Estrogen receptor (Homo sapiens, UniProt P03372).
T5 sequence (P03372 whole entry): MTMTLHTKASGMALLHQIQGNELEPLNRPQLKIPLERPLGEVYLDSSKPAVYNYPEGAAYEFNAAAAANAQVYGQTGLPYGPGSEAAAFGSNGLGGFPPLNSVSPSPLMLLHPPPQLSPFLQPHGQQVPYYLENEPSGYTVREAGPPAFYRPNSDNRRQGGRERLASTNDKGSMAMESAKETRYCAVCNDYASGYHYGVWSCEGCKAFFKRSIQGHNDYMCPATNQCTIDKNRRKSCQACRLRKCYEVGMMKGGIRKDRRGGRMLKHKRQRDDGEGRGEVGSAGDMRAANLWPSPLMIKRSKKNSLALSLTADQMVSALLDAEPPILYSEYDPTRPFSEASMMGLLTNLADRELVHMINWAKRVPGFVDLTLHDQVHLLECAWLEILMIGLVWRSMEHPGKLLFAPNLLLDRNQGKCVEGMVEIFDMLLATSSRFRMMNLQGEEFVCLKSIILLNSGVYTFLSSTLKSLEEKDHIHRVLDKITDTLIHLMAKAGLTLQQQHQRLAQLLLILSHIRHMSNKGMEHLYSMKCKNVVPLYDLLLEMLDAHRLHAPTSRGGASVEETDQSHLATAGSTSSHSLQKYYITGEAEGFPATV
Further: assay procedure not described here.

Chain of Voltage-dependent N-type calcium channel subunit alpha-1B (Q02294 whole entry): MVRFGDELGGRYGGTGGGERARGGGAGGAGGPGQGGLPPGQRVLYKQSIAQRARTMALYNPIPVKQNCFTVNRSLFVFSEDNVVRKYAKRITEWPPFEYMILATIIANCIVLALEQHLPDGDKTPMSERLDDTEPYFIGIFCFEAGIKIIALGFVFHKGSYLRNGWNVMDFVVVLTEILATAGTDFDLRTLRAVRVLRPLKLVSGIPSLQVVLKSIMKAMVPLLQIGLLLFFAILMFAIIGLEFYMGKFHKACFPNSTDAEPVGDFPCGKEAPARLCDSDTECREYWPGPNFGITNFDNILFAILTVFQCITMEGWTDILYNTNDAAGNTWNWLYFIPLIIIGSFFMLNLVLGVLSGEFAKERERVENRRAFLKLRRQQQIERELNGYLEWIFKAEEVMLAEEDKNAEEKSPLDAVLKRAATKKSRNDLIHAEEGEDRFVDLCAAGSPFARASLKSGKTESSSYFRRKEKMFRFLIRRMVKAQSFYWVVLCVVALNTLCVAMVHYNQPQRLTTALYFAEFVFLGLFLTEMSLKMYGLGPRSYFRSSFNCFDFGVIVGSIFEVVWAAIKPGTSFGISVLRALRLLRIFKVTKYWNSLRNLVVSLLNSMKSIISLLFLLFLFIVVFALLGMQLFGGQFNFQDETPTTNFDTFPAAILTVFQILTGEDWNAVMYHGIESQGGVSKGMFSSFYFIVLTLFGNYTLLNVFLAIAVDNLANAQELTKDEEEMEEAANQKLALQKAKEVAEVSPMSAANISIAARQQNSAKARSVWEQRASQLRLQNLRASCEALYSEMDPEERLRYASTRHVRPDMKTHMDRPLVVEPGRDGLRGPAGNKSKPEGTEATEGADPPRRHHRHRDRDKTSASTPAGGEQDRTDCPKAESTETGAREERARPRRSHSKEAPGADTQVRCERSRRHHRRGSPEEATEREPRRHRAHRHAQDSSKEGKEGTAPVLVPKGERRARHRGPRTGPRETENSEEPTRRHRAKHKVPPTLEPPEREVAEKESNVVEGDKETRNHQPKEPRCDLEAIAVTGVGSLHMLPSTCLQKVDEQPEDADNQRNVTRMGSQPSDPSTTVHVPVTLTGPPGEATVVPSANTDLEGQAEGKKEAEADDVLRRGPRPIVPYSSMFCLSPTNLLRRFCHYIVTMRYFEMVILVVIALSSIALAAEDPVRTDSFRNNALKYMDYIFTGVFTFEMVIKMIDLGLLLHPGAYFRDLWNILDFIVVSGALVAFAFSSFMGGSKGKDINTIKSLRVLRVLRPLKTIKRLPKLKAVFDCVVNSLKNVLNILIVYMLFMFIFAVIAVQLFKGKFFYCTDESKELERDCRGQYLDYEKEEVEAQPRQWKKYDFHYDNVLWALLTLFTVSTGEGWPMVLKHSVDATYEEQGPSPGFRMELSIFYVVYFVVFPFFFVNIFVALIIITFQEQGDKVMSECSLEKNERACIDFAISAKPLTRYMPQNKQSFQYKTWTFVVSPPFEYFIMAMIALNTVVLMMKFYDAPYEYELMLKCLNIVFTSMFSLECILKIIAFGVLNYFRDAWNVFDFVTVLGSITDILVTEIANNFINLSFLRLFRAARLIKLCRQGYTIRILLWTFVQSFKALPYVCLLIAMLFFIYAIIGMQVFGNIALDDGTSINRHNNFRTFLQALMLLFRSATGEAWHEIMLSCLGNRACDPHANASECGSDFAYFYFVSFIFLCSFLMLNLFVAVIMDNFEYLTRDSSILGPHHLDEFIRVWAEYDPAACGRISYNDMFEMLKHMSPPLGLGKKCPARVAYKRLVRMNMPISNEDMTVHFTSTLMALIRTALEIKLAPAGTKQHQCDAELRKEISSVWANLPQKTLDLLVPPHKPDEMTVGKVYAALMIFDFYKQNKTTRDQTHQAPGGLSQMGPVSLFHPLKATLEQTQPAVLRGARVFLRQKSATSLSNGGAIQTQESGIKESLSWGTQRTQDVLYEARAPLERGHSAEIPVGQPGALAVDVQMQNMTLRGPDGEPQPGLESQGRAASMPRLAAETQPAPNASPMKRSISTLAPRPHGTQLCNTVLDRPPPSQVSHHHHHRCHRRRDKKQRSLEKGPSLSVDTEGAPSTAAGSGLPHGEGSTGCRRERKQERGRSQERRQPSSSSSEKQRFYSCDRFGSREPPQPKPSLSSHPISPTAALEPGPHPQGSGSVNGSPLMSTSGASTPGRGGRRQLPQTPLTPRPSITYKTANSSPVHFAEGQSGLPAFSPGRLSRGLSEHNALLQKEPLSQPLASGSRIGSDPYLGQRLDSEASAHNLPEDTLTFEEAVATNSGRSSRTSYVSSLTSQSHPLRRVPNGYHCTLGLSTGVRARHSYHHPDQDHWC
Chain of Histamine H1 receptor (P35367 whole entry): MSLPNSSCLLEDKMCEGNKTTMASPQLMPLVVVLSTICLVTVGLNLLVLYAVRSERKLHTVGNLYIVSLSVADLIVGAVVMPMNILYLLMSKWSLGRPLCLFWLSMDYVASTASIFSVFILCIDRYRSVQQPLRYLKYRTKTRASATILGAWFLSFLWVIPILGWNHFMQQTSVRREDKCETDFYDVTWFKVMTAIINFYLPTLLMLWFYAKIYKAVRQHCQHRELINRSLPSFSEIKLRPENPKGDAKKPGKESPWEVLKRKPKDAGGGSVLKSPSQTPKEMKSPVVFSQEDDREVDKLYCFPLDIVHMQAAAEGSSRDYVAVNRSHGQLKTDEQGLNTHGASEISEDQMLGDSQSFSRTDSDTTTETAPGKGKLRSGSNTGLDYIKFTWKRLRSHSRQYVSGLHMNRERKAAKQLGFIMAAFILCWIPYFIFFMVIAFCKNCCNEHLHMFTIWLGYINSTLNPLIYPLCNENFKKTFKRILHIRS

In general, AC50 refers to the concentration giving half of the maximal activity seen. Consider `CC(=N)N1CC[C@H](SC2=C(C(=O)O)N3C(=O)[C@H]([C@@H](C)O)[C@H]3C2)C1`, for which the AC50 in test [1] is 300 µM; at Histamine H1 receptor, over 300 µM; on Glucocorticoid receptor, over 300 µM; in test [2], over 300 µM.

Consider `COC(=O)[C@H](c1ccccc1Cl)N1CCc2sccc2C1` [CLOPIDOGREL], for which the concentration at half-maximal activity (AC50) in test [3] was over 10 µM; in test [4], over 30 µM; on Estrogen receptor, over 30 µM; at Glucocorticoid receptor, over 30 µM; in test [2], over 30 µM.

In the case of `C#Cc1cccc(Nc2ncnc3cc(OCCOC)c(OCCOC)cc23)c1` [ERLOTINIB], the half-maximal activity concentration (AC50) (in test [1]; on Histamine H1 receptor; at Glucocorticoid receptor; in test [2]) was over 30 µM each time.

In the case of `C[C@H]1Oc2cc(cnc2N)-c2c(nn(C)c2C#N)CN(C)C(=O)c2ccc(F)cc21` [LORLATINIB], the AC50 (in test [1]; on Histamine H1 receptor; at Glucocorticoid receptor; in test [2]) was over 30 µM throughout.

Consider `O=C1NC(=O)C(c2ccccc2)(c2ccccc2)N1` [PHENYTOIN], for which the AC50 was over 10 µM in test [3], over 30 µM in test [4], over 30 µM at Glucocorticoid receptor and over 30 µM in test [2].

As to `CC(C)C[C@H](CN)CC(=O)O` [PREGABALIN], the AC50 was over 30 µM in test [1]; over 10 µM in test [3]; over 30 µM in test [4]; over 30 µM on Estrogen receptor; over 30 µM on Histamine H1 receptor; over 30 µM at Glucocorticoid receptor. In test [2], this compound returned an AC50 of over 30 µM.

As for `CCOc1cc(CC(=O)N[C@@H](CC(C)C)c2ccccc2N2CCCCC2)ccc1C(=O)O` [REPAGLINIDE], the AC50 (in test [1]; at Histamine H1 receptor; at Glucocorticoid receptor; in test [2]) was over 30 µM throughout.

On to `CCCN(CCC)CCc1cccc2c1CC(=O)N2` [ROPINIROLE], for which the half-maximal activity concentration (AC50) in test [3] was over 10 µM; in test [4], over 30 µM; on Histamine H1 receptor, 14 µM; on Glucocorticoid receptor, over 30 µM; in test [2], over 30 µM.

Take `CCCN(CCc1cccs1)[C@H]1CCc2c(O)cccc2C1` [ROTIGOTINE]: the concentration at half-maximal activity (AC50) is 0.13 µM in test [1], over 30 µM at Glucocorticoid receptor and over 30 µM in test [2].

Take `CC[C@H]1OC(=O)[C@H](C)[C@@H](O[C@H]2C[C@@](C)(OC)[C@@H](O)[C@H](C)O2)[C@H](C)[C@@H](O[C@@H]2O[C@H](C)C[C@H](N(C)C)[C@H]2O)[C@](C)(O)C[C@@H](C)/C(=N\OCOCCOC)[C@H](C)[C@@H](O)[C@]1(C)O` [ROXITHROMYCIN]: the concentration at half-maximal activity (AC50) (at Glucocorticoid receptor; in test [2]) was over 30 µM each time.

Take `CC(=O)S[C@@H]1CC2=CC(=O)CC[C@]2(C)[C@H]2CC[C@@]3(C)[C@@H](CC[C@@]34CCC(=O)O4)[C@H]12` [SPIRONOLACTONE]: the AC50 in test [3] was over 10 µM; in test [4], over 30 µM; on Estrogen receptor, over 30 µM; at Glucocorticoid receptor it was 5.5 µM; in test [2] it was over 30 µM.

Values taken from ChEMBL document CHEMBL5291721, “A preclinical secondary pharmacology resource illuminates target-adverse drug reaction associations of marketed drugs” (Nat Commun, 2023).
